Test [1] addresses T1, Serine/threonine-protein kinase haspin (Homo sapiens) (UniProt Q8TF76).
T1 sequence (whole entry): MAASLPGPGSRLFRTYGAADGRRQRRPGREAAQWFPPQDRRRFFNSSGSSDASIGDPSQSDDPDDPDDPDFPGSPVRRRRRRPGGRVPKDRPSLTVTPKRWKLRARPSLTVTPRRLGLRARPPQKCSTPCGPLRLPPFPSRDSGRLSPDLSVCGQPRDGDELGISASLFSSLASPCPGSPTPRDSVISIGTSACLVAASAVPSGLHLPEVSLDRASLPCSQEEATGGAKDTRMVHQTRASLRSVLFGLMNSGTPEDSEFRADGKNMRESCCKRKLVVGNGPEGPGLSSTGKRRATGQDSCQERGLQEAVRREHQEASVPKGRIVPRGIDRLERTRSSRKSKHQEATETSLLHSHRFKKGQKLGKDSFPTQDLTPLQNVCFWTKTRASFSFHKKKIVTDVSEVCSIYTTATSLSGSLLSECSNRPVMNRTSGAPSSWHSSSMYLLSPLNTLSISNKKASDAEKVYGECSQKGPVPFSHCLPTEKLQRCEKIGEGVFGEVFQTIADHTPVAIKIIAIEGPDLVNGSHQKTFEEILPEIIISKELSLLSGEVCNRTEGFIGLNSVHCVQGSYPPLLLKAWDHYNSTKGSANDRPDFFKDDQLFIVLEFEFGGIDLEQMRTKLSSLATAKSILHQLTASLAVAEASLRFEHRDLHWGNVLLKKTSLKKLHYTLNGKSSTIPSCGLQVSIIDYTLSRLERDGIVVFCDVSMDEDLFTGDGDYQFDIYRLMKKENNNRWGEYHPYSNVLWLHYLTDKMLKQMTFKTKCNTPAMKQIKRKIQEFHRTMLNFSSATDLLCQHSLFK
The test can be described thus: Selectivity interaction (Ambit KINOMEscan and KiNATiv profiling in Jurkat cells) EUB0000090b GSG2. The class given is cell-based. To be noted: at 1 µM.

The target of test [2] is T2, Protein kinase C iota type (Homo sapiens) (UniProt P41743).
T2 sequence (whole entry): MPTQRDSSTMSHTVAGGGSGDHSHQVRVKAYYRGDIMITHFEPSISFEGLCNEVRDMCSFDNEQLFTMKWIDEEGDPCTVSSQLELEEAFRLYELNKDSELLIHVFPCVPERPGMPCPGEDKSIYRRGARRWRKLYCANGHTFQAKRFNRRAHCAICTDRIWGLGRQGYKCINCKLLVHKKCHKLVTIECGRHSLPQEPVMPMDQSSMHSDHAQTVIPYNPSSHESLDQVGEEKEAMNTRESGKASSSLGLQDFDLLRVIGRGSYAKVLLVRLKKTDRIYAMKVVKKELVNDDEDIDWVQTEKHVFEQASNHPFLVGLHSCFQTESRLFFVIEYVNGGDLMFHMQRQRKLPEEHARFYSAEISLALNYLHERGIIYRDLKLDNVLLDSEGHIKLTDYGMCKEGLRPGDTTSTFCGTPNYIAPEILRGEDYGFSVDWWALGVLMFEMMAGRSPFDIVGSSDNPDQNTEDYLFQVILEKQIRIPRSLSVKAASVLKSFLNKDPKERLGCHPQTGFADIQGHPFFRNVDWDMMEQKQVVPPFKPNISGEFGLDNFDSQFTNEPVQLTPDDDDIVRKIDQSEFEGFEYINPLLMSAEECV
Nature of the test: Selectivity interaction (Upstate Kinase Profiler service (Millipore)) EUB0000056c PRKCI. To be noted: at 1 µM.

Test [3] addresses T3, Serine/threonine-protein kinase Sgk2 (Homo sapiens) (UniProt Q9HBY8).
T3 sequence (whole entry): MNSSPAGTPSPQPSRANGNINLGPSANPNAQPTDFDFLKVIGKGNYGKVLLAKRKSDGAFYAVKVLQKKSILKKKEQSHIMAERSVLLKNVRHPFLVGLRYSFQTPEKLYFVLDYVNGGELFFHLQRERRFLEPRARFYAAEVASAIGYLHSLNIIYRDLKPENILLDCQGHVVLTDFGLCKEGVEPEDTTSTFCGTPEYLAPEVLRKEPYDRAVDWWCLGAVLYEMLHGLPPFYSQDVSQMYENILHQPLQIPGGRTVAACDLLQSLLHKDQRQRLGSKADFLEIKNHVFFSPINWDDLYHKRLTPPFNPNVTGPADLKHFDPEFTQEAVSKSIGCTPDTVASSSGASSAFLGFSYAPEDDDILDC
Nature of the test: Selectivity interaction (KinomeScan (DiscoverX)) EUB0001079a SGK2. As to conditions: at 1 µM.

Test [4] concerns the target T4, Serine/threonine-protein kinase LATS2 (Homo sapiens) (UniProt Q9NRM7).
T4 sequence (whole entry): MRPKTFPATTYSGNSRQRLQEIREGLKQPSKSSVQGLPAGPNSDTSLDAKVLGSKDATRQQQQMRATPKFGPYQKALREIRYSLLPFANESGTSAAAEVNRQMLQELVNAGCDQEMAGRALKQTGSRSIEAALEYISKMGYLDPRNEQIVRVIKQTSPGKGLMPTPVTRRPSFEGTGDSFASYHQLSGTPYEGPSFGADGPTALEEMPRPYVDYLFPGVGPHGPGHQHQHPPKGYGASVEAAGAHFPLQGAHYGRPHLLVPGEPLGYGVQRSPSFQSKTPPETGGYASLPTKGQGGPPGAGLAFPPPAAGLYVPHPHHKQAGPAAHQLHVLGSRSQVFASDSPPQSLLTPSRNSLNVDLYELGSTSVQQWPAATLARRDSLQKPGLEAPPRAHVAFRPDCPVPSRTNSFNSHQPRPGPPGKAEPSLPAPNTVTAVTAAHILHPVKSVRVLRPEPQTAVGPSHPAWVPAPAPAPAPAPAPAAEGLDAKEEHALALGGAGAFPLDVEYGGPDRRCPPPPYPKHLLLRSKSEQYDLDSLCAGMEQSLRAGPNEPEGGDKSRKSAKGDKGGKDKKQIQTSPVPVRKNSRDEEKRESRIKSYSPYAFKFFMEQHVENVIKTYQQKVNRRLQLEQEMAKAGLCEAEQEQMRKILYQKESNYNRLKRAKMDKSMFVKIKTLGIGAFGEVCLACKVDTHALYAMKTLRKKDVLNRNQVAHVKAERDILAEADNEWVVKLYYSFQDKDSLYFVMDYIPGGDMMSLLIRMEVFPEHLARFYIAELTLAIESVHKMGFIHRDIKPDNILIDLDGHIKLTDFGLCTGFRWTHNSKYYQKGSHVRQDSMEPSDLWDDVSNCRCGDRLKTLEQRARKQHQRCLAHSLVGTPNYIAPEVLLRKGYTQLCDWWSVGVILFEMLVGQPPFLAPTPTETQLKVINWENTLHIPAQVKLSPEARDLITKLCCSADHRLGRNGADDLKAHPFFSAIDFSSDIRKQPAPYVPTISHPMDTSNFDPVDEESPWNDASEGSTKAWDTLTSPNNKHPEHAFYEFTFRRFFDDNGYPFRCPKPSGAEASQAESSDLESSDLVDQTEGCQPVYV
Nature of the test: Selectivity interaction (KinomeScan (DiscoverX)) EUB0001079a LATS2. To be noted: at 1 µM.

For test [5], the target named is Platelet-derived growth factor receptor beta (Homo sapiens, UniProt P09619). The test can be described thus: Selectivity interaction (Millipore kinase profiler) EUB0000124b PDGFRB. To be noted: at 10 µM.
Chain of Platelet-derived growth factor receptor beta (P09619 whole entry): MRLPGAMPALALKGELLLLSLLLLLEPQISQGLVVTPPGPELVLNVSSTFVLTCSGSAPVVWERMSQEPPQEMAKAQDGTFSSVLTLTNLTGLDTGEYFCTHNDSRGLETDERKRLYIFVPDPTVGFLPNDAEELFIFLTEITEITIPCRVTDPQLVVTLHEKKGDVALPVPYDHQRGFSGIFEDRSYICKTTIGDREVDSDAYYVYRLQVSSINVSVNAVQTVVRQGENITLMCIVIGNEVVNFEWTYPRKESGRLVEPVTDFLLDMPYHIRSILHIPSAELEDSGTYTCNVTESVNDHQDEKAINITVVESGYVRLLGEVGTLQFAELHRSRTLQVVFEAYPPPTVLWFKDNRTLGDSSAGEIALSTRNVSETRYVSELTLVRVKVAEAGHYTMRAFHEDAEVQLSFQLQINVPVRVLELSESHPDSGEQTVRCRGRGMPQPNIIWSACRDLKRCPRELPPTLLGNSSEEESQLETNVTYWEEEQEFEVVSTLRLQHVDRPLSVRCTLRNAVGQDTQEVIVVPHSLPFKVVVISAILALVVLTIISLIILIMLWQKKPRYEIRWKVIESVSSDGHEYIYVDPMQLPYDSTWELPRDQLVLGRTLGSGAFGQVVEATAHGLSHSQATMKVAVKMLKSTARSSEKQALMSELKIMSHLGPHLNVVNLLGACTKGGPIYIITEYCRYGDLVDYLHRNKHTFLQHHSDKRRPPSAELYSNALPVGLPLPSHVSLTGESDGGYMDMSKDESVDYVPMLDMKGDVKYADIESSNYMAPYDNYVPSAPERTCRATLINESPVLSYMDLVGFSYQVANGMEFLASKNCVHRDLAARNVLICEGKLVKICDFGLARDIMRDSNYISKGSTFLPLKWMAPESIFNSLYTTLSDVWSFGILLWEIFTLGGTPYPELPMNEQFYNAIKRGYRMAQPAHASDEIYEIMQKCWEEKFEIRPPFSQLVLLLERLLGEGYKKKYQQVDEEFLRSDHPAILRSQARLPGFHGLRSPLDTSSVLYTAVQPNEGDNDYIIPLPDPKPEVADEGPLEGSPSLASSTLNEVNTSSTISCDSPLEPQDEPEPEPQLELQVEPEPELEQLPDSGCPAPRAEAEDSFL

In test [1], `CN(C)C/C=C/C(=O)Nc1ccc(C(=O)N2CCCC(Nc3ncc(Cl)c(-c4c[nH]c5ccccc45)n3)C2)cc1` (stereo not given) yielded a % of control of 73%.
Take `Cc1ccc(-c2ccc3c(ccc4sc5c(c43)NC[C@@H](C)NC5=O)n2)cn1`: the % of inhibition in test [2] is -10%.
Turning to `Nc1cnc(N2CCc3cc(S(=O)(=O)Nc4c(F)cc(Cl)cc4F)cc(N4CCCC4=O)c32)nc1` [TP-020n], the % of control in test [3] came out at 76%; in test [4], 100%.
The molecule `CC(=O)Nc1cccc(-n2c(=O)n(C3CC3)c(=O)c3c(Nc4ccc(I)cc4F)n(C)c(=O)c(C)c32)c1` came in with a % of control in test [5] of 111%.
